Assay results published in PMC11079024, “Identification of a family of species-selective complex I inhibitors as potential anthelmintics” (Nature Communications, 2024).
pIC50: −log10 of the molar value. Values joined by “and” are separate entries in the source; they are usually repeats but may differ in a detail not shown here. Equal entries are not always repeated.

Assays:
H. polygyrus = conditions: cited from earlier work
[1] = system: C. elegans ben-1 mutant strains ECA882, ECA917, ECA1075, ECA1080, CB3474; format: cell-based, Caenorhabditis elegans; conditions: score 0-1 relative to DMSO, values >1 set to 1
[2] = system: P. hermaphrodita complex I; experiment: In vitro complex I activity assay, P. hermaphrodita mitochondria; format: biochemical, Phasmarhabditis hermaphrodita; conditions: for in vitro complex I activity relative to solvent control: P. hermaphrodita mitochondria; for pIC50: purified mitochondria
Description: Mitochondria were isolated from the following free-living nematode strains: C. elegans—N2, CB3474, ECA882, ECA917, ECA1075, ECA1080; C. briggsae—AF16; P. pacificus—PS312; and P. hermaphrodita—B178. With the exception of the P. hermaphrodita strain B178, adult worms of each strain were grown in bulk through liquid culture to obtain mitochondria in sufficient quantities. Due to poor growth in liquid media, mixed stage populations of P. hermaphrodita were washed off and collected from NGM plates seeded with OP50. The isolation of mitochondria from all free-living nematode strains followed the protocol previously outlined in Burns et al.[24]. In brief, a 1 L saturated culture of E. coli HB101 was concentrated 20-fold in 50 mL complete S-medium. ~500,000 L1 worms synchronized from an embryo preparation performed the day prior were added to the S-media/HB101 suspension and grown to adulthood over the course of 3.5 days at 20 °C with shaking at 165 rpm. Following growth, worms were collected in 10 ×15 mL conical tubes and washed 7 times in M9 buffer. Worm suspensions were then combined into a single 15 mL conical tube and diluted to a final volume of 15 mL with M9 buffer. 1 mL aliquots of worm suspension were then distributed to 15 × 1.5 mL screw-cap microcentrifuge tubes and were pelleted at 500 g for 1 min. Excess M9 was aspirated without disturbing the worm pellet. 600 μL ice-cold isolate buffer A (250 mM sucrose, 10 mM Tris (pH 7.5), 1 mM EDTA, 1 mM PMSF (freshly prepared)) and 300 μL cold glass beads were then added to each tube. Tubes were incubated on ice for 10 min, and the worms were then lysed by bead beating (6 x 30 s, with 1 min cooling intervals). Tubes containing worm lysate were centrifuged at 1,000 g for 10 min at 4 °C and the supernatant was transferred to 15 new microcentrifuge tubes on ice. The tubes were centrifuged a second time at 1,000 g for 10 min at 4 °C and the supernatant was once again transferred to 15 new microcentrifuge tubes on ice. These tubes were then centrifuged at 16,000 g for 10 min at 4 °C. The resulting mitochondrial pellet was washed twice by re-suspension in 300 μL of ice-cold isolate buffer B (250 mM sucrose, 10 mM Tris (pH 7.5), 1 mM EDTA). Following the final wash, isolation buffer was aspirated from each tube and the pellets were flash-frozen in ethanol/dry ice and stored at −80 °C until needed.
The enzymatic activities of individual ETC complexes (I-IV) were assessed spectrophotometrically in isolated mitochondria using a Varioskan LUX Multimode plate reader (ThermoFisher Scientific). Mitochondrial pellets previously isolated were thawed on ice and resuspended in ice-cold isolation buffer (250 mM sucrose, 10 mM Tris (pH 7.5), 1 mM EDTA). The BCA assay (Walker, 1994) was used to quantify the protein concentration of mitochondria suspensions; solutions were diluted to a concentration of 0.2 mg/mL for use in all assays. For the complex I assay, mitochondria pellets were freeze-thawed on ice three times to increase enzyme accessibility. […] 20 μL mitochondria suspension was then added/mixed with a pipette to initiate the reaction. Immediately following the addition of mitochondria, absorbance was measured (complex I and II: 600 nm; complex III and IV: 550 nm) in 30 s intervals over 15 min. Enzymatic activity was determined in each reaction by plotting absorbance versus time and calculating the slope of the curve during the initial linear phase of the reaction. […] Percent activity of each complex was calculated by dividing the enzyme-specific activity of each well by the enzyme-specific activity of the corresponding solvent controls.
Chemical solutions were prepared in complex I assay buffer composed of 25 mM KPi buffer (pH 7.5), 3 mg/mL bovine serum albumin (BSA), 80 μM NADH, 60 μM decylubiquinone, 160 μM DCIP, 2 μM antimycin A and 2 mM KCN. […]

[3] = system: C. elegans (N2) complex I (NADH:ubiquinone oxidoreductase); experiment: biochemical; format: biochemical; conditions: wild-type C. elegans mitochondria
Outline: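 Mitochondria, 0.2 mg/mL protein, freeze-thawed three times, assayed in 25 mM KPi pH 7.5 with BSA, 80 μM NADH, 60 μM decylubiquinone, 160 μM DCIP, antimycin A and KCN. Rate from initial linear slope of A600 over 15 min. % of solvent control.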

For `COC(=O)Nc1nc2ccc(Sc3ccccc3)cc2[nH]1` [fenbendazole, reference compound], the “reduction in H. polygyrus worm burden” value (H. polygyrus; single dose 100 mg/kg, mice) is given as 90%.
For `COC(=O)Nc1nc2ccc(C(=O)c3ccccc3)cc2[nH]1` [mebendazole, reference compound], the “C. elegans L1 relative motility, 3-hour post 200 µM KCN dilution” value [1] is listed as 1.000 and the “reduction in worm burden, H. polygyrus murine model” value (H. polygyrus; single 300 mg/kg dose) is listed as 63.5%.
In the case of `Cc1nc2ccccc2n1Cc1ccc(Cl)cc1` [STK697993], the “in vitro complex I activity relative to solvent control” value ([2]; 0.0001 µM, Mean) was 89.612%, the “in vitro complex I activity relative to solvent control” value ([2]; 0.0001 µM, single replicate) was 93.319% and 105.139% and 70.379% and the “in vitro complex I activity relative to solvent control” value ([2]; 0.0005 µM, Mean) was 95.634%. For the same compound, the “in vitro complex I activity relative to solvent control” value ([2]; 0.0005 µM, single replicate) was 119.766% and 92.855% and 74.280%, the “in vitro complex I activity relative to solvent control” value ([2]; 0.001 µM, Mean) was 90.469% and the “in vitro complex I activity relative to solvent control” value ([2]; 0.001 µM, single replicate) was 96.266% and 129.304% and 45.836%. The “in vitro complex I activity relative to solvent control” value ([2]; 0.0025 µM, Mean) was 83.278%, the “in vitro complex I activity relative to solvent control” value ([2]; 0.0025 µM, single replicate) was 64.388% and 114.111% and 71.337% and the “in vitro complex I activity relative to solvent control” value ([2]; 0.005 µM, Mean) was 110.209%. The “in vitro complex I activity relative to solvent control” value ([2]; 0.005 µM, single replicate) was 99.329% and 145.962% and 85.335%, the “in vitro complex I activity relative to solvent control” value ([2]; 0.013 µM, Mean) was 102.008% and the “in vitro complex I activity relative to solvent control” value ([2]; 0.013 µM, single replicate) was 103.702% and 118.527% and 83.796%. The “in vitro complex I activity relative to solvent control” value ([2]; 0.025 µM, Mean) was 81.894%, the “in vitro complex I activity relative to solvent control” value ([2]; 0.025 µM, single replicate) was 82.152% and 107.849% and 55.682% and the “in vitro complex I activity relative to solvent control” value ([2]; 0.063 µM, Mean) was 53.328%. The “in vitro complex I activity relative to solvent control” value ([2]; 0.063 µM, single replicate) was 61.601% and 65.149% and 33.235%, the “in vitro complex I activity relative to solvent control” value ([2]; 0.125 µM, Mean) was 31.057% and the “in vitro complex I activity relative to solvent control” value ([2]; 0.125 µM, single replicate) was 37.073% and 51.097% and 5.000%. The “in vitro complex I activity relative to solvent control” value ([2]; 0.313 µM, Mean) was 8.632%, the “in vitro complex I activity relative to solvent control” value ([2]; 0.313 µM, single replicate) was 10.235% and 15.661% and 0.000% and the “in vitro complex I activity relative to solvent control” value ([2]; 0.625 µM, Mean) was 5.779%. For the same compound, the “in vitro complex I activity relative to solvent control” value ([2]; 0.625 µM, single replicate) was 0.000% and 9.493% and 7.843%, the “in vitro complex I activity relative to solvent control” value ([2]; 1.5 µM, Mean) was 4.860% and the “in vitro complex I activity relative to solvent control” value ([2]; 1.5 µM, single replicate) was 0.000% and 2.483% and 12.098%. The “in vitro complex I activity relative to solvent control” value ([2]; 3 µM, Mean) was 2.448%, the “in vitro complex I activity relative to solvent control” value ([2]; 3 µM, single replicate) was 0.000% and 7.344% and the “in vitro complex I activity relative to solvent control” value ([2]; 15 µM, Mean) was 12.306%. The “in vitro complex I activity relative to solvent control” value ([2]; 15 µM, single replicate) was 12.065% and 18.802% and 6.051%, the “in vitro complex I activity relative to solvent control” value ([2]; 37.5 µM, Mean) was 7.732% and the “in vitro complex I activity relative to solvent control” value ([2]; 37.5 µM, single replicate) was 0.065% and 16.547% and 6.585%. For the same compound, the “in vitro complex I activity relative to solvent control” value ([2]; 75 µM, Mean) was 3.784%, the “in vitro complex I activity relative to solvent control” value ([2]; 75 µM, single replicate) was 0.000% and 11.350% and the pIC50 [2] was 7.15.
In the case of `c1ccc2[nH]c(-c3cscn3)nc2c1` [Thiabendazole], the “C. elegans L1 relative motility, 3-hour post 200 µM KCN dilution” value [1] was 1.000, the “percent (%) in vitro complex I activity relative to solvent control” value ([3]; 0.125 µM, mean of replicates) was 102.109% and the “percent (%) in vitro complex I activity relative to solvent control” value ([3]; 0.125 µM, single replicate) was 99.976% and 103.068% and 101.883% and 103.510%. The “percent (%) in vitro complex I activity relative to solvent control” value ([3]; 0.313 µM, mean of replicates) was 98.029%, the “percent (%) in vitro complex I activity relative to solvent control” value ([3]; 0.313 µM, single replicate) was 96.436% and 97.421% and 98.637% and 99.622% and the “percent (%) in vitro complex I activity relative to solvent control” value ([3]; 0.625 µM, mean of replicates) was 100.000%. The “percent (%) in vitro complex I activity relative to solvent control” value ([3]; 0.625 µM, single replicate) was 100.000%, the “percent (%) in vitro complex I activity relative to solvent control” value ([3]; 1.5 µM, mean of replicates) was 94.806% and the “percent (%) in vitro complex I activity relative to solvent control” value ([3]; 1.5 µM, single replicate) was 99.025% and 95.797% and 89.075% and 95.328%. For the same compound, the “percent (%) in vitro complex I activity relative to solvent control” value ([3]; 3 µM, mean of replicates) was 103.387%, the “percent (%) in vitro complex I activity relative to solvent control” value ([3]; 3 µM, single replicate) was 101.704% and 108.843% and 104.258% and 98.742% and the “percent (%) in vitro complex I activity relative to solvent control” value ([3]; 15 µM, mean of replicates) was 102.027%. The “percent (%) in vitro complex I activity relative to solvent control” value ([3]; 15 µM, single replicate) was 100.357% and 106.821% and 103.640% and 97.291%, the “percent (%) in vitro complex I activity relative to solvent control” value ([3]; 37.5 µM, mean of replicates) was 98.201% and the “percent (%) in vitro complex I activity relative to solvent control” value ([3]; 37.5 µM, single replicate) was 99.533% and 98.195% and 100.518% and 94.556%. The “percent (%) in vitro complex I activity relative to solvent control” value ([3]; 75 µM, mean of replicates) was 97.767% and the “percent (%) in vitro complex I activity relative to solvent control” value ([3]; 75 µM, single replicate) was 97.247% and 98.620% and 98.499% and 96.702%.
In the case of `CC(C)Cc1ccc(C(C)c2nc3ccccc3n2C)cc1` (stereo not drawn) [NPD8790], the pIC50 [2] was 5.96.
